55 molecules from patent US9266830B2, “Pesticidal arylpyrrolidines” (Bayer Intellectual Property GmbH, priority 2007, dated 2016) can be followed below.

In this experiment the test system is Boophilus microplus. Description: Boophilus microplus test (injection). Type of experiment: in vivo. To be noted: application rate 20 μg/animal, adult engorged females, after 7 days. Here is the method: Solvent: dimethyl sulfoxide
To produce a suitable preparation of active compound, 10 mg of active compound are dissolved in 0.5 ml solvent, and the concentrate is diluted with solvent to the desired concentration. Five adult engorged female ticks (Boophilus microplus) are injected with compound solution into the abdomen. Ticks are transferred into replica plates and incubated in a climate chamber for a period of time. Egg deposition of fertile eggs is monitored. After 7 days mortality in % is determined 100% means that all eggs are infertile; 0% means that all eggs are fertile.

For the molecule `CC(=O)OCC(=O)NCc1ccc(N2CCC(c3cc(Cl)cc(Cl)c3)(C(F)(F)F)C2)cc1C(F)(F)F` (stereo not shown) [1-188], the “activity (100% means that all eggs are infertile)” value is listed as 100%. Regarding `CCCNC(=O)NCc1ccc(N2CCC(c3cc(Cl)cc(Cl)c3)(C(F)(F)F)C2)cc1C(F)(F)F` (stereo not shown) [1-222], the “activity (100% means that all eggs are infertile)” value is 100%. Regarding `O=C(NCc1ccc(N2CCC(c3cc(Cl)cc(Cl)c3)(C(F)(F)F)C2)cc1C(F)(F)F)NC1CC1` (stereo not shown) [1-224], the “activity (100% means that all eggs are infertile)” value is reported as 100%. As for `O=C(NCc1ccc(N2CCC(c3cc(Cl)cc(Cl)c3)(C(F)(F)F)C2)cc1C(F)(F)F)NC1CCC1` (stereo not shown) [1-227], the “activity (100% means that all eggs are infertile)” value is on record as 100%. `O=C(NCc1ccc(N2CCC(c3cc(Cl)cc(Cl)c3)(C(F)(F)F)C2)cc1C(F)(F)F)NCC1CC1` (stereo not shown) [1-232]: the “activity (100% means that all eggs are infertile)” value is on record as 100%.

Regarding `O=C(NCc1ccccn1)NCc1ccc(N2CCC(c3cc(Cl)cc(Cl)c3)(C(F)(F)F)C2)cc1C(F)(F)F` (stereo not shown) [1-254], the “activity (100% means that all eggs are infertile)” value was 100%. Regarding `CNC(=O)N(C)Cc1ccc(N2CCC(c3cc(Cl)cc(Cl)c3)(C(F)(F)F)C2)cc1C(F)(F)F` (stereo not shown) [1-258], the “activity (100% means that all eggs are infertile)” value turned out to be 100%. Take `CN(Cc1ccc(N2CCC(c3cc(Cl)cc(Cl)c3)(C(F)(F)F)C2)cc1C(F)(F)F)C(=O)NC1CC1` (stereo not shown) [1-260]: the “activity (100% means that all eggs are infertile)” value amounted to 100%. On to `CC(C)(C)OC(=O)NCc1ccc(N2CCC(c3cc(Cl)cc(Cl)c3)(C(F)(F)F)C2)cc1C(F)(F)F` (stereo not shown) [1-270], for which the “activity (100% means that all eggs are infertile)” value came to 100%. In the case of `CCC(=O)NCc1ccc(N2CCC(c3cc(Cl)cc(Cl)c3)(C(F)(F)F)C2)cc1Br` (stereo not shown) [1-285], the “activity (100% means that all eggs are infertile)” value is given as 100%. `NCc1ccc(N2CCC(c3cc(C(F)(F)F)cc(C(F)(F)F)c3)(C(F)(F)F)C2)cc1C(F)(F)F` (stereo not shown) [1-295]: the “activity (100% means that all eggs are infertile)” value amounted to 100%. Take `O=C(CC(F)(F)F)NCc1ccc(N2CCC(c3cc(C(F)(F)F)cc(C(F)(F)F)c3)(C(F)(F)F)C2)cc1C(F)(F)F` (stereo not shown) [1-296]: the “activity (100% means that all eggs are infertile)” value was determined as 100%. As to `COC(=O)NCc1ccc(N2CCC(c3cc(C(F)(F)F)cc(C(F)(F)F)c3)(C(F)(F)F)C2)cc1C(F)(F)F` (stereo not shown) [1-298], the “activity (100% means that all eggs are infertile)” value is on record as 100%. As to `CCOC(=O)NCc1ccc(N2CCC(c3cc(C(F)(F)F)cc(C(F)(F)F)c3)(C(F)(F)F)C2)cc1C(F)(F)F` (stereo not shown) [1-299], the “activity (100% means that all eggs are infertile)” value worked out at 100%. As to `CC(C)(C)OC(=O)NCc1ccc(N2CCC(c3cc(C(F)(F)F)cc(C(F)(F)F)c3)(C(F)(F)F)C2)cc1C(F)(F)F` (stereo not shown) [1-300], the “activity (100% means that all eggs are infertile)” value is on record as 100%. For the molecule `CCCNC(=O)NCc1ccc(N2CCC(c3cc(C(F)(F)F)cc(C(F)(F)F)c3)(C(F)(F)F)C2)cc1C(F)(F)F` (stereo not shown) [1-303], the “activity (100% means that all eggs are infertile)” value worked out at 100%. In the case of `CC(C)NC(=O)NCc1ccc(N2CCC(c3cc(C(F)(F)F)cc(C(F)(F)F)c3)(C(F)(F)F)C2)cc1C(F)(F)F` (stereo not shown) [1-304] it was 100%; in that of `O=C(NCc1ccc(N2CCC(c3cc(C(F)(F)F)cc(C(F)(F)F)c3)(C(F)(F)F)C2)cc1Cl)C1CC1` (stereo not shown) [1-308], 100%; in that of `CCC(=O)NCc1ccc(N2CCC(c3cc(C(F)(F)F)cc(C(F)(F)F)c3)(C(F)(F)F)C2)cc1Br` (stereo not shown) [1-312], 100%. Consider `CC(=O)NCc1ccc(N2CCC(c3cc(C(F)(F)F)cc(C(F)(F)F)c3)(C(F)(F)F)C2)cc1[N+](=O)[O-]` (stereo not shown) [1-317], for which the “activity (100% means that all eggs are infertile)” value was 100%. For `O=C(NCc1ccc(N2CCC(c3cc(C(F)(F)F)cc(C(F)(F)F)c3)(C(F)(F)F)C2)cc1[N+](=O)[O-])C1CC1` (stereo not shown) [1-319], the “activity (100% means that all eggs are infertile)” value was 100%. In the case of `O=C(CC(F)(F)F)NCc1ccc(N2CCC(c3cc(Cl)c(Cl)c(Cl)c3)(C(F)(F)F)C2)cc1C(F)(F)F` (stereo not shown) [1-327] it was 100%; in that of `CC(C)C(=O)NCc1ccc(N2CCC(c3cc(Cl)c(Cl)c(Cl)c3)(C(F)(F)F)C2)cc1C(F)(F)F` (stereo not shown) [1-329], 100%. For the molecule `CCNC(=O)NCc1ccc(N2CCC(c3cc(Cl)c(Cl)c(Cl)c3)(C(F)(F)F)C2)cc1C(F)(F)F` (stereo not shown) [1-330], the “activity (100% means that all eggs are infertile)” value was 100%. `CCC(=O)NCc1ccc(N2CCC(c3cc(Cl)c(Cl)c(Cl)c3)(C(F)(F)F)C2)cc1Cl` (stereo not shown) [1-338]: the “activity (100% means that all eggs are infertile)” value stood at 100%.

`O=C(NCc1ccc(N2CCC(c3cc(Cl)c(Cl)c(Cl)c3)(C(F)(F)F)C2)cc1Cl)C1CC1` (stereo not shown) [1-339]: the “activity (100% means that all eggs are infertile)” value is 100%. As to `CCNC(=O)NCc1ccc(N2CCC(c3cc(Cl)c(Cl)c(Cl)c3)(C(F)(F)F)C2)cc1Cl` (stereo not shown) [1-341], the “activity (100% means that all eggs are infertile)” value amounted to 100%. For `CCC(=O)NCc1ccc(N2CCC(c3cc(Cl)c(Cl)c(Cl)c3)(C(F)(F)F)C2)cc1Br` (stereo not shown) [1-345], the “activity (100% means that all eggs are infertile)” value came to 100%. `O=C(NCc1ccc(N2CCC(c3cc(Cl)c(Cl)c(Cl)c3)(C(F)(F)F)C2)cc1Br)C1CC1` (stereo not shown) [1-346]: the “activity (100% means that all eggs are infertile)” value worked out at 100%.

On to `O=C(NCc1ccc(N2CCC(c3cc(Cl)cc(C(F)(F)F)c3)(C(F)(F)F)C2)cc1C(F)(F)F)C1CC1` (stereo not shown) [1-357], for which the “activity (100% means that all eggs are infertile)” value was 100%. Turning to `O=C(CC(F)(F)F)NCc1cnc(N2CCC(c3cc(Cl)c(Cl)c(Cl)c3)(C(F)(F)F)C2)cc1C(F)(F)F` (stereo not shown) [1-380], the “activity (100% means that all eggs are infertile)” value worked out at 100%. In the case of `CCNC(=O)NCc1cnc(N2CCC(c3cc(Cl)c(Cl)c(Cl)c3)(C(F)(F)F)C2)cc1C(F)(F)F` (stereo not shown) [1-381], the “activity (100% means that all eggs are infertile)” value is 100%.

For `O=C(CC(F)(F)F)NCc1cnc(N2CCC(c3cc(C(F)(F)F)cc(C(F)(F)F)c3)(C(F)(F)F)C2)cc1C(F)(F)F` (stereo not shown) [1-386], the “activity (100% means that all eggs are infertile)” value was determined as 100%. To `CC(NC(=O)NCc1ccc(N2CCC(c3cc(Cl)cc(Cl)c3)(C(F)(F)F)C2)cc1Cl)C(F)(F)F` (stereo not shown) [1-442] belongs 100%. Regarding `CC(NC(=O)NCc1ccc(N2CCC(c3cc(Cl)cc(Cl)c3)(C(F)(F)F)C2)cc1Cl)c1nccs1` (stereo not shown) [1-446], the “activity (100% means that all eggs are infertile)” value is on record as 100%. As to `CC(Br)C(=O)NCc1ccc(N2CCC(c3cc(Cl)cc(Cl)c3)(C(F)(F)F)C2)cc1Cl` (stereo not shown) [1-458], the “activity (100% means that all eggs are infertile)” value stood at 100%. As to `FC(F)(F)C1(c2cc(Cl)cc(Cl)c2)CCN(c2ccc(CNC(=S)NC3CC3)c(Cl)c2)C1` (stereo not shown) [1-468], the “activity (100% means that all eggs are infertile)” value came to 100%. As for `C[S+]([O-])CC(=O)NCc1ccc(N2CCC(c3cc(Cl)cc(Cl)c3)(C(F)(F)F)C2)cc1C(F)(F)F` (stereo not shown) [1-494], the “activity (100% means that all eggs are infertile)” value is on record as 100%. With `CS(=O)(=O)CC(=O)NCc1ccc(N2CCC(c3cc(Cl)cc(Cl)c3)(C(F)(F)F)C2)cc1C(F)(F)F` (stereo not shown) [1-495], the “activity (100% means that all eggs are infertile)” value is 100%. `CC[S+]([O-])CC(=O)NCc1ccc(N2CCC(c3cc(Cl)cc(Cl)c3)(C(F)(F)F)C2)cc1C(F)(F)F` (stereo not shown) [1-500]: the “activity (100% means that all eggs are infertile)” value is reported as 100%. In the case of `CCS(=O)(=O)CC(=O)NCc1ccc(N2CCC(c3cc(Cl)cc(Cl)c3)(C(F)(F)F)C2)cc1C(F)(F)F` (stereo not shown) [1-501], the “activity (100% means that all eggs are infertile)” value came to 100%. In the case of `C=CCSCC(=O)NCc1ccc(N2CCC(c3cc(Cl)cc(Cl)c3)(C(F)(F)F)C2)cc1C(F)(F)F` (stereo not shown) [1-503] it was 100%; in that of `C=CC[S+]([O-])CC(=O)NCc1ccc(N2CCC(c3cc(Cl)cc(Cl)c3)(C(F)(F)F)C2)cc1C(F)(F)F` (stereo not shown) [1-504], 100%; in that of `C=CCS(=O)(=O)CC(=O)NCc1ccc(N2CCC(c3cc(Cl)cc(Cl)c3)(C(F)(F)F)C2)cc1C(F)(F)F` (stereo not shown) [1-505], 100%. As for `CSCC(=O)NCc1ccc(N2CCC(c3cc(Cl)c(Cl)c(Cl)c3)(C(F)(F)F)C2)cc1C(F)(F)F` (stereo not shown) [1-728], the “activity (100% means that all eggs are infertile)” value turned out to be 100%. As for `C[S+]([O-])CC(=O)NCc1ccc(N2CCC(c3cc(Cl)c(Cl)c(Cl)c3)(C(F)(F)F)C2)cc1C(F)(F)F` (stereo not shown) [1-729], the “activity (100% means that all eggs are infertile)” value is listed as 100%. To `CS(=O)(=O)CC(=O)NCc1ccc(N2CCC(c3cc(Cl)c(Cl)c(Cl)c3)(C(F)(F)F)C2)cc1C(F)(F)F` (stereo not shown) [1-730] belongs 100%.

With `C=CCSCC(=O)NCc1ccc(N2CCC(c3cc(Cl)c(Cl)c(Cl)c3)(C(F)(F)F)C2)cc1C(F)(F)F` (stereo not shown) [1-732], the “activity (100% means that all eggs are infertile)” value was 100%. In the case of `C=CC[S+]([O-])CC(=O)NCc1ccc(N2CCC(c3cc(Cl)c(Cl)c(Cl)c3)(C(F)(F)F)C2)cc1C(F)(F)F` (stereo not shown) [1-733] it was 100%; in that of `CC(=O)CC(=O)NCc1ccc(N2CCC(c3cc(C(F)(F)F)cc(C(F)(F)F)c3)(C(F)(F)F)C2)cc1C(F)(F)F` (stereo not shown) [1-963], 100%. For the molecule `CSCC(=O)NCc1ccc(N2CCC(c3cc(C(F)(F)F)cc(C(F)(F)F)c3)(C(F)(F)F)C2)cc1C(F)(F)F` (stereo not shown) [1-966], the “activity (100% means that all eggs are infertile)” value is 100%. Regarding `C[S+]([O-])CC(=O)NCc1ccc(N2CCC(c3cc(C(F)(F)F)cc(C(F)(F)F)c3)(C(F)(F)F)C2)cc1C(F)(F)F` (stereo not shown) [1-967], the “activity (100% means that all eggs are infertile)” value turned out to be 100%. For the molecule `CS(=O)(=O)CC(=O)NCc1ccc(N2CCC(c3cc(C(F)(F)F)cc(C(F)(F)F)c3)(C(F)(F)F)C2)cc1C(F)(F)F` (stereo not shown) [1-968], the “activity (100% means that all eggs are infertile)” value is on record as 100%. In the case of `C=CCSCC(=O)NCc1ccc(N2CCC(c3cc(C(F)(F)F)cc(C(F)(F)F)c3)(C(F)(F)F)C2)cc1C(F)(F)F` (stereo not shown) [1-969], the “activity (100% means that all eggs are infertile)” value turned out to be 100%. In the case of `C=CC[S+]([O-])CC(=O)NCc1ccc(N2CCC(c3cc(C(F)(F)F)cc(C(F)(F)F)c3)(C(F)(F)F)C2)cc1C(F)(F)F` (stereo not shown) [1-970] it was 100%.
